Tested on: pentosidine formation
Test: Inhibitory activity on pentosidine formation, samples incubated with BSA and arabinose
Format: biochemical
Details: incubated with BSA and arabinose instead of patient plasma; for Pentosidine Formation Ratio (%) at 5 Concentration: Table 13
Protocol: Plasma was collected from hemodialysis patients prior to dialysis with the patients' consent, and the plasma was filtered and sterilized. To the plasma (450 μL) was added solutions of TM-2002 in dimethylsulfoxide (50 μL) (final concentrations: 0.8, 2.0, and 5.0 mM), and the mixtures were incubated for 1 week at 37° C. The levels of the pentosidine formation were measured.
Pentosidine was measured as follows. To each sample (50 μL) after incubation was added an equal volume of 10% trichloroacetic acid, and the mixture was subsequently centrifuged at 5,000 g for 5 minutes. After the supernatant was removed, the pellet was washed with 5% trichloroacetic acid (300 μL). The pellet was dried under reduced pressure, and subsequently hydrolyzed in a 6N HCl solution (100 μL) under a nitrogen atmosphere for 16 hours at 110° C. To the acid hydrolysate was then added 5N NaOH (100 μL) and 0.5 M phosphate buffer (pH 7.4) (200 μL); the mixture was subsequently filtered through a micropore filter with 0.5 μm pores and diluted with PBS. The concentration of the released pentosidine was measured by reverse-phase HPLC using a fluorescence detector (RF-10A, Shimadzu Corporation) (Miyata, T. et al.; Proc. Natl. Acad. Sci. USA, Vol. 93, p. 2353-2358, 1996). The effluent was monitored at the excitation/emission wavelength of 335/385 nm. Synthetic pentosidine was used as the reference material. The detection limit of pentosidine was 0.1 pmol/mg protein.
(2) Other edaravone analogues (Compounds (1) or (2)) were investigated for their inhibitory activities on pentosidine formation in the same manner as in Section (1) above, except that the samples were incubated with BSA and arabinose instead of the patient plasma. In the tables, “-” means that the test was not conducted.

Compound	Pentosidine Formation Ratio (%) at 5 mM Drug Concentration [%]	Pentosidine Formation Ratio (%) at 5 Concentration [%]
CC1=NN(c2ccccc2Cl)C(=O)/C1=C/c1ccc(O)c(OCO)c1 [compound 31]	15.57	
CC1=NN(c2ccc(S(N)(=O)=O)cc2)C(=O)/C1=C/c1ccc(O)cc1 [compound 49, 4-[4-(4-hydroxy-benzylidene)-3-methyl-5-oxo-4,5-dihydro-pyrazol-1-yl]-benzenesulfonamide]	7.09	
COc1cc(/C=C2/C(=O)N(c3ccc(C(=O)OC(C)C)cc3)N=C2C)ccc1O [compound 60]	9.02	
CC1=NN(c2cccc(Cl)c2)C(=O)/C1=N/O [compound 73, 2-(3-chloro-phenyl)-5-methyl-2H-pyrazol-3,4-dione-4-oxime]		66.42
CC1=NN(c2cccc(Cl)c2)C(=O)/C1=C/c1ccc(O)cc1 [compound 71, 2-(3-chloro-phenyl)-4-(4-hydroxy-benzylidene)-5-methyl-2,4-dihydropyrazol-3-one]		4.63
CC1=NN(c2ccccc2)C(=O)/C1=C/c1c(C)nn(-c2ccccc2)c1O [compound 66, 4-(5-hydroxy-3-methyl-1-phenyl-1H-pyrazol-4-ylmethylene)-5-methyl-2-phenyl-2,4-dihydro-pyrazol-3-one]	15.17	
Cc1ncc2c(c1O)C(c1c(C)nn(-c3ccccc3)c1O)OC2.Cl (centres unmarked) [compound 69, 1-(5-hydroxy-3-methyl-1-phenyl-1H-pyrazol-4-yl)-6-methyl-1,3-dihydro-furo [3,4-c]pyridin-7-ol]		2.94
CC1=NN(c2cccc(C(F)(F)F)c2)C(=O)/C1=C/C=C/c1ccccc1 [compound 33]	80.08	
CC(=O)c1ccc(N2N=C(C)/C(=C3\C(=O)Nc4ccccc43)C2=O)cc1 [compound 45, 3-[1-(4-acetyl-phenyl)-3-methyl-5-oxo-1,5-dihydro-pyrazol-4-ylidene]-1,3-dihydro-indol-2-one]	19.22	
CC1=NN(c2ccccc2)C(=O)/C1=C/c1ccc(OCc2ccccc2)cc1 [compound 72, 4-(4-benzyloxy-benzylidene)-5-methyl-2-phenyl-2,4-dihydropyrazol-3-one]		7.63
CC1=NN(c2ccccc2)C(=O)C1(O)S(=O)(=O)[O-].[Na+] (centres unmarked) [compound 25, sodium 4-hydroxy-3-methyl-5-oxo-1-phenyl-4,5-dihydro-1H-pyrazole-4-sulfonate]	38.80	
O=C1/C(=C\c2ccc(O)cc2)C(C(F)(F)F)=NN1c1ccccc1 [compound 53, 4-(4-hydroxy-benzylidene)-2-phenyl-5-trifluoromethyl-2,4-dihydro-pyrazol-3-one]	66.76	
CCOC(=O)C1=NN(c2ccccc2)/C(=C2\C(=O)N(c3ccccc3)N=C2c2ccccc2)S1 [compound 74]		87.24
COc1ccc(/C=C2/C(=O)N(c3ccccc3)N=C2C)c(OC)c1O [compound 59, 4-(3-hydroxy-2,4-dimethoxy-benzylidene)-5-methyl-2-phenyl-2,4-dihydro-pyrazol-3-one]	5.3	
CC1=NN(c2ccc(C)c(C)c2)C(=O)/C1=C\c1ccc(O)cc1O [compound 54, 4-(2,4-dihydroxy-benzylidene)-2-(3,4-dimethyl-phenyl)-5-methyl-2,4-dihydro-pyrazol-3-one]	73.48	
CC1=NN(c2cccc(Cl)c2)C(=O)/C1=C/c1cc2ccccc2[nH]c1=O [compound 38, 3-[1-(3-chloro-phenyl)-3-methyl-5-oxo-1,5-dihydro-pyrazol-4-ylidenemethyl]-1H-quinolin-2-one]	84.95	
CC1=NN(c2ccccc2)C(=O)C1CCC(=O)O (centres unmarked) [compound 7]	64.64	
CC(=O)NC1C(=O)N(c2ccccc2)N=C1C (centres unmarked) [compound 12, N-(3-methyl-5-oxo-1-phenyl-4,5-dihydro-1H-pyrazol-4-yl)-acetamide]	54.21	

Compound	Pentosidine Formation Ratio (%) at 5 mM Drug Concentration [%]	Pentosidine Formation Ratio (%) at 5 Concentration [%]
CC1=NN(c2ccc(F)cc2)C(=O)C1C(c1ccccc1O)c1c(C)nn(-c2ccc(F)cc2)c1O (centres unmarked) [compound 22, 2-(4-fluoro-phenyl)-4-[[1-(4-fluoro-phenyl)-5-hydroxy-3-methyl-1H-pyrazol-4-yl]-(2-hydroxy-phenyl)-methyl]-5-methyl-2,4-dihydro-pyrazol-3-one]	2.9	
CCCC1=NN(c2ccccc2)C(=O)C1CC(=O)c1ccccc1 (centres unmarked) [compound 20]	83.12	
CC1=NN(c2ccccc2)C(=O)C1Sc1nc(-c2ccc(C)cc2)cs1 (centres unmarked) [compound 21, 5-methyl-2-phenyl-4-(4-p-toluyl-thiazol-2-ylsulfanyl)-2,4-dihydro-pyrazole-3-one]	42.07	
CC1=NN(c2ccccc2)C(=O)/C1=C/c1ccc(Cl)cc1 [compound 67]	9.09	
COC(=O)c1ccc(N2N=C(C)/C(=C/c3ccc4c(c3)OCO4)C2=O)cc1 [compound 40, 4-(4-benzo[1,3]dioxol-5-ylmethylene-3-methyl-5-oxo-4,5-dihydro-pyrazol-1-yl)-benzoic acid methyl ester]	32.37	
O=C(NC1=NN(c2ccccc2)C(=O)C1Sc1nnnn1-c1ccccc1)c1ccccc1 (centres unmarked) [compound 14, N-[5-oxo-1-phenyl-4-(1-phenyl-1H-tetrazol-5-ylsulfanyl)-4,5-dihydro-1H-pyrazol-3-yl]-benzamide]	61.27	
O=C(O)c1cccc(N2N=C(c3ccccc3)/C(=C/c3ccccc3O)C2=O)c1 [compound 37]	0.02	
CC1=NN(c2ccccc2Cl)C(=O)/C1=C/c1ccc(N(C)C)cc1 [compound 32, 2-(2-chloro-phenyl)-4-(4-dimethylamino-benzylidene)-5-methyl-2,4-dihydro-pyrazol-3-one]	8.7	
CC1=NN(c2ccccc2)C(=O)C12C(c1ccccc1)C21C(=O)N(c2ccccc2)N=C1C (centres unmarked) [compound 30, 4,10-dimethyl-2,8,11-triphenyl-2,3,8,9-tetraza-dispiro[4.0.4.1]undeca-3,9-diene-1,7-dione]	62.43	
CC1=NN(c2cccc(C(=O)O)c2)C(=O)/C1=C\c1ccc(N2CCC(Cl)=N2)cc1 [compound 36, 3-{4-[4-(3-chloro-4,5-dihydro-pyrazol-1-yl)-benzylidene]-3-methyl-5-oxo-4,5-dihydro-pyrazol-1-yl}-benzoic acid]	26.37	
COc1ccc(-c2csc(SC3C(=O)N(c4ccccc4)N=C3C)n2)cc1 (centres unmarked) [compound 19]	40.19	
CC1=NN(c2ccccc2)C(=O)C1(N1CCOCC1)N1CCOCC1 [compound 26, 5-methyl-4,4-dimorpholine-4-yl-2-phenyl-2,4-dihydro-pyrazol-3-one]	50.68	
CCc1ccc(N2N=C(C)/C(=C\c3ccc(O)cc3)C2=O)cc1 [compound 48, 2-(4-ethyl-phenyl)-4-(4-hydroxy-benzylidene)-5-methyl-2,4-dihydro-pyrazol-3-one]	0.02	
CC1=NN(c2cccc([N+](=O)[O-])c2)C(=O)C1Sc1nnnn1-c1ccccc1 (centres unmarked) [compound 13, 5-methyl-2-(3-nitro-phenyl)-4-(1-phenyl-1H-tetrazol-5-ylsulfanyl)-2,4-dihydro-pyrazol-3-one]	74.66	
CC1=NN(c2ccc3ccccc3c2)C(=O)/C1=C/c1ccc(O)cc1 [compound 58]	0.07	
CC1=NN(c2ccc(F)cc2)C(=O)/C1=C\c1c(C)nn(-c2ccccc2C)c1O [compound 46, 2-(4-fluoro-phenyl)-4-(5-hydroxy-3-methyl-1-o-toluyl-1H-pyrazol-4-ylmethylene)-5-methyl-2,4-dihydro-pyrazol-3-one]	15.69	
CCOC(=O)c1ccc(N2N=C(C(F)(F)F)/C(=C/c3cccs3)C2=O)cc1 [compound 50, 4-(5-oxo-4-thiophen-2-ylmethylene-3-trifluoromethyl-4,5-dihydro-pyrazol-1-yl)-benzoic acid ethyl ester]	63.17	

From patent US20120065198A2, “Detection and Treatment of Schizophrenia” (Tokai University Educational System, priority 2007, published 2012)
